What was measured:
[1] = system: Human peripheral blood lymphocytes (PBMC); test: Human peripheral blood T lymphocyte proliferation activation (3H-thymidine incorporation, stimulation index); settings: concentrations 0.001 μM to 500 μM, 4 days then 24 hours 3H-TdR, FIG. 1
Procedure: Human peripheral blood lymphocytes (PBMC) are isolated from donors' by centrifugation on Ficoll-Hypaque. They are then placed in culture in 96-well plates at a rate of 2.10^6 cells/ml in 200 μl of RPMI 1640 medium (Gibco) containing 10% foetal calf serum or human AB serum, 20 mM of Glutamine, 10 mM Hepes, 1 mM of sodium pyruvate, 10 μg/ml of penicillin-streptomycin. The molecules under test are then added at final concentrations ranging from 0.001 μM to 500 μM. Each condition is produced in triplicate. The molecules are diluted in isotonic phosphate buffer (PBS). The cells are then incubated at 37° C.-5% CO2 for 4 days. Cell proliferation is then determined by measuring the incorporation of thymidine ^3H (^3H-TdR). For this, 0.5 μCi of ^3H-TdR is added per culture. After 24 hours, the cells are retrieved on Cell Harvester (Packard Instruments) and the radioactivity incorporated in high molecular weight material is counted using a Rack-Beta counter (Packard).
The stimulation indices are evaluated as follows:
In all the experiments, isoprenyl pyrophosphonate (IPP) is selected as the reference.

Vγ9/Vδ2 lymphocytes = test: Vγ9/Vδ2 lymphocyte expansion (flow cytometry immunofluorescence, anti-CD3 / anti-Vγ9); type: cell-based, human; settings: PBMC after 5 days in culture, 100 μM; FIG. 2E-2L
Procedure: FIGS. 2A-2L. In order to verify selectivity with respect to Vγ9/Vδ2 lymphocytes of molecule activating potential, PBMCs, were cultured and analysed after 5 days of culture in the presence of various molecules by flow cytometry immunofluorescence. For this, the cells are retrieved, washed in PBS and then incubated in the presence of human anti-CD3 monoclonal antibodies conjugated with fluoroscein (FITC, FL1) and human anti-Vγ9 coupled with biotin and then detected with Streptavidine-phycoerythrin conjugate (ST-PE, FL2). The markings are produced by incubating for 30 minutes with 0.5 μg of each antibody per million cells. The analysis is performed after washing on a FACScalibur-SORT cell analyser-sorter cytofluorimeter (Becton Dickinson, Mountain View, CA). FIG. 2A gives the profile (size FSC and granularity SSC) of the cells studied. […] FIGS. 2D to 2L show a PBMC after 5 days in culture in the presence of the molecule tested. FIG. 2D: cells stimulated with 1μg/ml phytohaemagglutinin A (PHA). FIG. 2E: cells stimulated with 100μM isoprenylpyrophosphate (IPP). FIG. 2F: cells stimulated with 100μM 1-pyrophosphono-4-methylpenta-1,3-diene. FIG. 2G: cells stimulated with 100μM (E) 1-pyrophosphono-penta-1,3-diene. FIG. 2H: cells stimulated with 100μM (E) 1-pyrophosphono-buta-1,3-diene, FIG. 2I: cells stimulated with 100μM 5-pyrophosphono-2-methylpent-2-ene. FIG. 2J: cells stimulated with 100μM α,γ-di-[4-methylpent-4-enyl]-triphosphonate. FIG. 2K: cells stimulated with 100μM 5-pyrophosphono-2methylpentene. FIG. 2L: cells stimulated with 100μM 5-triphosphono-2-methylpentene.
In order to verify selectivity with respect to Vγ9/Vδ2 lymphocytes of the molecule activating potential, PBMCs, cultured under the conditions described above were analysed after 5 days of culture in the presence of various molecules by flow cytometry immunofluorescence. For this, the cells are retrieved, washed in PBS and then incubated in the presence of human anti-CD3 monoclonal antibodies conjugated with fluoroscein (FITC, FL1) and human anti-Vγ9 coupled with biotin and then detected with Streptavidine-phycoerythrin conjugate (ST-PE, FL2). The markings are produced by incubating for 30 minutes with 0.5 μg of each antibody per million cells. The analysis is performed after washing on a FACScalibur-SORT cell analyser-sorter cytofluorimeter (Becton Dickinson, Mountain View, Calif.). The results are processed using Cellquest software.
FIG. 2A gives the profile (size FSC and granularity SSC) of the cells studied. […] FIGS. 2D to 2L show a PBMC after 5 days in culture in the presence of the molecule tested.

[2] = Stability in human AB serum followed by phosphorus 31 NMR; settings: three days of incubation; for degradation of the molecule after incubation in serum: human AB serum, 31P NMR
Procedure: To 0.5 ml of each solution, 500 μl of human AB serum was added and the mixture were left to incubate. After three days of incubation, the degradation of the molecule is measured by phosphorus 31 NMR.

human γ9δ2 T lymphocytes = settings: in vitro; literature (Tanaka et al. 1994; Kunzmann et al. 2000); cited from earlier work
[3] = 0.1 mole/liter in D2O, 0.5 ml + 500 μl human AB serum

## (E) 1-pyrophosphono-buta-1,3-diene [Compound M3]
[1]
  inducing T lymphocyte proliferation (proliferation index) compared with IPP: more effective than IPP
Vγ9/Vδ2 lymphocytes
  Vγ9/Vδ2 T cell population in stimulated cultures: high increase

## (E) 1-pyrophosphono-4-methylpenta-1,3-diene [Compound M1]
[1]
  inducing T lymphocyte proliferation (proliferation index) compared with IPP: more effective than IPP
Vγ9/Vδ2 lymphocytes
  Vγ9/Vδ2 T cell population in stimulated cultures: high increase

## isopentenyl pyrophosphonate [IPPN]
[2]; [3]
  integral of the 31P NMR peak of the degradation product (isoprenyl phosphate / isoprenyl phosphonate): 1.1
  integral of the 31P NMR peak of the intact molecule: 96
[2]
  degradation of the molecule after incubation in serum: changed negligibly

## NCCC(O)(P(=O)(O)O)P(=O)(O)O [pamidronate]
Human γ9δ2 T lymphocytes
  γ9δ2 T lymphocyte proliferation: stimulants of γ9δ2 T lymphocyte proliferation

## (E) 1-pyrophosphono-penta-1,3-diene [Compound M2]
[1]
  inducing T lymphocyte proliferation (proliferation index) compared with IPP: more effective than IPP
Vγ9/Vδ2 lymphocytes
  Vγ9/Vδ2 T cell population in stimulated cultures: high increase

## CCOP(=O)(O)O [monoethylphosphate]
Human γ9δ2 T lymphocytes
  γ9δ2 T lymphocyte proliferation: induce in vitro, the proliferation of γ9δ2 T lymphocytes

## 5-triphosphono-2-methylpentene [Compound M7]
[1]
  inducing T lymphocyte proliferation (proliferation index) compared with IPP: more effective than IPP
Vγ9/Vδ2 lymphocytes
  Vγ9/Vδ2 T cell population in stimulated cultures: high increase

## 5-pyrophosphono-2-methylpent-2-ene [Compound M4]
[1]
  inducing T lymphocyte proliferation (proliferation index) compared with IPP: more effective than IPP
Vγ9/Vδ2 lymphocytes
  Vγ9/Vδ2 T cell population in stimulated cultures: high increase

## 5-pyrophosphono-2-methylpentene [Compound M6]
[1]
  inducing T lymphocyte proliferation (proliferation index) compared with IPP: more effective than IPP
Vγ9/Vδ2 lymphocytes
  Vγ9/Vδ2 T cell population in stimulated cultures: high increase

## NCCCC(O)(P(=O)(O)O)P(=O)(O)O [alendronate]
Human γ9δ2 T lymphocytes
  γ9δ2 T lymphocyte proliferation: stimulants of γ9δ2 T lymphocyte proliferation

## α,γ-di-[4-methylpent-4-enyl]-triphosphonate [Compound M5]
[1]
  inducing T lymphocyte proliferation (proliferation index) compared with IPP: more effective than IPP
Vγ9/Vδ2 lymphocytes
  Vγ9/Vδ2 T cell population in stimulated cultures: high increase

## CCCCCN(C)CCC(O)(P(=O)(O)O)P(=O)(O)O [ibandronate]
Human γ9δ2 T lymphocytes
  γ9δ2 T lymphocyte proliferation: stimulants of γ9δ2 T lymphocyte proliferation

## C=C(C)CCO[P@@](=O)(O)OP(=O)(O)O [IPP, isopentenyl pyrophosphate, reference compound]
[2]; [3]
  integral of the 31P NMR peak of the intact molecule: 1.2
[2]
  degradation of the molecule after incubation in serum: significant degradation

Reference: patent US8017596B2, “Phosphonates useful as modulators of T-γ-9-δ-2 activity” (Innate Pharma, S.A., priority 2001, dated 2011)
